Results on one compound are retold here after patent US20220053777A1, “NON-TOXIC ANT-REPELLING GEL” (priority 2013, published 2022).

Structures are written as SMILES.

The data set in a line: Observation of polymerization (viscosity increase) of oleic acid with/without fumed silica and air. It is filed as physicochemical. From the text: We can conclude that it is the addition of fumed silica to the oleic acid formula which is responsible for promoting this polymerization reaction. […] Based on chemical fundamentals we theorize that it is the fumed silica's high surface area that acts as the catalyst to increase the reaction between the oleic acid and oxygen in the air to promote oxidation, resulting in cross-linking, resulting in polymerization, resulting in an increase in viscosity and hardening. Since only some of the oleic acid molecules participate in this polymerization reaction, the rest of the oleic acid in the gel formulation is free to still act as an effective repellent.

With `CCCCCCCC/C=C\CCCCCCCC(=O)O` [Oleic Acid, oleic acid], the Polymerization entry (Exposure to Air: Yes) is recorded as “No”. Also, the “increase in viscosity (polymerization)” value (exposed to air, temperatures normally encountered in the environment) is given as “no substantial increase in viscosity”.
